Measurements as given in US20240082273A1, “NEUROKININ INHIBITORS SUCH AS APREPITANT FOR TREATING NON SMALL CELL LUNG CARCINOMA OR BREAST CANCER WITHOUT MUTATIONS” (priority 2020, published 2024).

Tested on: lung cancer cell lines with molecular profile EGFR−/ALK−/ROS1− (A549, H358, H441, H460, H520)
Assay: MTT proliferation, NSCLC cell lines with EGFR−/ALK−/ROS1− profile
Assay type: cell-based, human
Details: for Mean proliferation: 48 hours
Description: EGFR, ALK and ROS1 are key molecular factors that may be used to determine pathological classification, prognosis, therapeutics and behaviour in patients with lung cancer. EGFR, ALK and ROS1 are biomarkers routinely analysed in the clinical practice of the management of patients with NSCLC. NSCLC with molecular profile EGFR-/ALK-/ROS1- presents a better response to treatment with the NK1 inhibitor aprepitant, compared to lung cancer with different profiles (in particular, EGFR+/ALK-/ROS1- and EGFR-/ALK+/ROS1-, in which EGFR and ALK respectively contain mutations relative to their wild type gene). Commercial lines of lung cancer were used as shown in Table 2 together with their molecular profile. The molecular profile of the cancer cell lines was determined by sequencing and can be consulted in the Cancer Cell Line Encyclopaedia database of public access available at the url: https://portals.broadinstitute.org/ccle All cells were cultured in wells under vendor-recommended conditions and exposed to different concentrations of aprepitant for 48 hours. In each case a group of wells of cells were used to which no treatment was applied and which were considered as controls. At 48 hours the number of cells was measured. Eight cell lines of human were used for the study of NK1 inhibitors (Table 3). All of them were maintained in culture in their respective culture media (Gibco,Thermo Fisher Scientific) supplemented with 10% foetal bovine serum (FBS) (Gibco, Thermo Fisher Scientific), 2 mM L-Glutamine (Gln) (Sigma-Aldrich, Merk), and […] and […] Gibco, Thermo Fisher Scientific) in a humidified incubator at 37° C. and 5% CO2. Cell culture media used are Dulbecco's Modified Eagle Medium (DMEM), and RPMI Medium 1640 (RPMI-1640). To measure cell viability, the cytotoxicity of drugs in culture was evaluated using the 3-(4,5-Dimethyl-2-thiazolyl)-2,5-diphenyl-2H-tetrazolium bromide (MTT) reduction assay. This assay assesses cell viability through the indirect measurement of the activity of reductases that convert yellow soluble MTT into purple insoluble formazan salts. As MTT can only be reduced when these enzymes are active, the reaction is used as an indicator of the cell metabolic competence and, therefore, of viability. A variable number of cells (depending on the cell line) were seeded in 96 multi-well plates and grown during 24 hours. The following day, the culture medium was aspirated and fresh culture medium with the drug dissolved was added to the wells. After 24 hours or 48 hours cell viability was measurement by adding 10 μl of a 5 mg/ml MTT solution (M5655; Sigma-Aldrich) and 100 μl of HCl 0.01M-SDS 10% solution 4 hours later. After 24 hours, the absorbance was measured at 595 nm, using a multi-well plate reader (iMark, Bio-rad). Each condition was tested 5 times, obtaining 5 values of absorbance. All sample measurements were corrected using the blank (culture medium without cells) mean absorbance value, and normalized to positive control to determinate relative cell viability for each condition at 24 and 48 hours.

## C[C@@H](O[C@H]1OCCN(Cc2nc(=O)[nH][nH]2)[C@H]1c1ccc(F)cc1)c1cc(C(F)(F)F)cc(C(F)(F)F)c1 [Aprepitant]
Homo sapiens, concentration of 5 μM, in most cell lines (FIG. 3)
  inhibition at 5 µM: ~20%
Homo sapiens, concentration of 20 μM (FIG. 3), read-out: growth inhibition
  inhibition at 20 µM: 60%
Aprepitant 1 μM
  Mean proliferation: 98.09
Aprepitant 3 μM
  Mean proliferation: 94.71
Aprepitant 5 μM
  Mean proliferation: 72.82
Aprepitant 10 μM
  Mean proliferation: 59.95
Aprepitant 20 μM
  Mean proliferation: 42.37
Aprepitant 30 μM
  Mean proliferation: 30.66
Aprepitant 40 μM
  Mean proliferation: 18.72
Aprepitant 50 μM
  Mean proliferation: 4.05
Aprepitant 60 μM
  Mean proliferation: 4.40
Concentration of 5 μM, in most cell lines (FIG. 3)
  proliferation compared to control: 80%
In vitro, Table 4 and FIG. 2
  response to treatment versus EGFR+/ALK−/ROS1− and EGFR−/ALK+/ROS1− profiles: clearly improved response
